US10632147B2, “Methods and compositions for treating inflammatory disorders” (priority 2007, dated 2020)

Assays:
Acute oral toxicity = conditions: 500 ppm AFC, single dose of 5 g/kg orally, observed up to 14 days
[1] = tested on: Enterococcus faecium (VRE) ATCC #51559; test: Microbial Time Kill Assay; type: cell-based; conditions: 150 ppm AFC, 15 second contact time
[2] = Dermal irritation study (Draize); type: in vivo, New Zealand white rabbits; conditions: 0.5 ml, 689.5 ppm AFC, intact and abraded site; Draize at 24 and 72 hours
Method: A skin irritation study was conducted on six healthy New Zealand white rabbits. The test article (0.5 ml hypochlorous acid, 689.5 ppm AFC) was applied to one intact and one abraded site on the clipped back of each rabbit. Skin reactions were evaluated by the Draize technique at 24 and 72 hours after dosing and the primary irritation index was calculated. There was no erythema or edema noted at any time period and there were no abnormal physical signs noted during the observation period.

MS2 = MS2 coliphage virus carrier test; conditions: ceramic tiles and stainless steels, 1 min contact time, 20-200 ppm, infectivity
[3] = tested on: Staphylococcus aureus (MRSA) ATCC #33591; test: Microbial Time Kill Assay; type: cell-based; conditions: 150 ppm AFC, 15 second contact time
[4] = tested on: Klebsiella pneumonia ATCC #4352; test: Microbial Time Kill Assay; type: cell-based; conditions: 150 ppm AFC, 15 second contact time
[5] = tested on: Staphylococcus saprophyticus ATCC #15305; test: Microbial Time Kill Assay; type: cell-based; conditions: 150 ppm AFC, 15 second contact time
[6] = tested on: wound pathogens including S. aureus, P. aeruginosa, E. coli, Enterococcus spp., and Candida spp.; test: In vitro antimicrobial studies against wound pathogens; type: cell-based; conditions: within a 15 seconds contact time, even at ≤150 ppm
[7] = tested on: Escherichia coli (strain CM891); test: Bacterial mutagenicity; conditions: 241-252 ppm AFC, absence and presence of liver S9 fraction
[8] = tested on: Candida albicans ATCC #10231; test: Microbial Time Kill Assay; type: cell-based; conditions: 150 ppm AFC, 15 second contact time
Method: Fungicidal activity tests were performed using hypochlorous acid (140-150 ppm) against Candida albicans ATCC 10231 and Aspergillus niger ATCC 16404. Stock culture of Candida albicans ATCC 10231 and Aspergillus niger ATCC 16404 were grown and maintained on Malt Extract Agar at 30° C. […] All samples were serially diluted, plated out on Tryptic Soy Agar, incubated at 37° C. for 3 days and colonies forming units counted.

[9] = tested on: Enterococcus faecium (VRE); test: Carrier test; type: cell-based; conditions: <180 ppm, glass slide carriers
[10] = tested on: Klebsiella oxytoca ATCC #12833; test: Microbial Time Kill Assay; type: cell-based; conditions: 150 ppm AFC, 15 second contact time
[11] = tested on: Staphylococcus aureus ATCC 6538; test: Bactericidal suspension test; type: cell-based
[12] = tested on: Staphylococcus haemolyticus ATCC #29968; test: Microbial Time Kill Assay; type: cell-based; conditions: 150 ppm AFC, 15 second contact time
Poliovirus Enterovirus 1 = type: cell-based
[13] = tested on: Bacillus subtilis var. niger CIP 7 718; test: Sporicidal suspension test; type: cell-based
Method: (§1) Sporicidal activity tests were performed using hypochlorous acid solution against Bacillus cereus CIP 7803, Bacillus subtilis CIP 7718, Clostridium sporogenes CIP 7939. Stock spore suspensions of Bacillus cereus CIP 7803, Bacillus subtilis CIP 7718, Clostridium sporogenes CIP 7939 were obtained from the Pasteur Institute's National Collection for the Culture of micro-organisms. Spore suspensions (1 ml) were added to 4 ml of sterile distilled water and 5 ml of hypochlorous acid solution at a range of concentrations at 20° C. After an exposure time of 60 minutes, 1 ml samples were neutralized using standard quench solution. All samples were serially diluted, plated out on selective agar, incubated aerobically or anaerobically at either 30° C. or 37° C. for 72 hours and colonies forming units counted.

[14] = tested on: Clostridium sporogenes CIP 7 939; test: Sporicidal suspension test; type: cell-based
Method: as §1

[15] = tested on: Staphylococcus hominis ATCC #25615; test: Microbial Time Kill Assay; type: cell-based; conditions: 150 ppm AFC, 15 second contact time
human norovirus = test: Norovirus suspension test; type: cell-based; conditions: 20-200 mg/L, within a contact time of 20 seconds
[16] = tested on: Escherichia coli ATCC #8739; test: Microbial Time Kill Assay; type: cell-based; conditions: 150 ppm AFC, 15 second contact time
[17] = tested on: Clostridium difficile (spores); test: Endospore Time Kill Assay; type: cell-based; conditions: for Log Reduction / Vashe Log10 / Vashe Survivors / % Reduction (% Kill): ≤150 ppm AFC
[18] = tested on: Pseudomonas aeruginosa ATCC 15442; test: Bactericidal suspension test; type: cell-based
[19] = tested on: Staphylococcus aureus ATCC #6538; test: Microbial Time Kill Assay; type: cell-based; conditions: 150 ppm AFC, 15 second contact time
[20] = hypochlorous acid 40-180 ppm, suspension test

SMILES: OCl [hypochlorous acid]
- mortality or evidence of toxicity (Acute oral toxicity): no mortality or evidence of toxicity
- % Reduction (% Kill) [1]: >99.999%
- HOCl Solution Log10 [1]: ≤1
- HOCl Solution Survivors [1]: <10
- Log Reduction [1]: ≥5.20
- dermal irritation [2]: no dermal irritation
- inactivation of MS2 (MS2): > 3 log10
- % Reduction (% Kill) [3]: >99.999%
- HOCl Solution Log10 [3]: ≤1
- HOCl Solution Survivors [3]: <10
- Log Reduction [3]: ≥5.20
- % Reduction (% Kill) [4]: >99.999%
- HOCl Solution Log10 [4]: ≤1
- HOCl Solution Survivors [4]: <10
- Log Reduction [4]: ≥5.70
- % Reduction (% Kill) [5]: >99.999%
- HOCl Solution Log10 [5]: ≤1
- HOCl Solution Survivors [5]: <10
- Log Reduction [5]: ≥5.68
- kill [6]: > 5 log
- mutagenic activity [7]: No evidence of mutagenic activity
- % Reduction (% Kill) [8]: >99.999%
- HOCl Solution Log10 [8]: ≤1
- HOCl Solution Survivors [8]: <10
- Log Reduction [8]: ≥5.63
- Time to achieve pass [9]: 5 min
- % Reduction (% Kill) [10]: >99.999%
- HOCl Solution Log10 [10]: ≤1
- HOCl Solution Survivors [10]: <10
- Log Reduction [10]: ≥5.18
- contact time after which pass was achieved [11, 20]: 15 s
- Test Result (Log reduction) ([11]; in 5 min., 20° C. ± 1° C.): >10^5 in 5 min.
- % Reduction (% Kill) [12]: >99.999%
- HOCl Solution Log10 [12]: ≤1
- HOCl Solution Survivors [12]: <10
- Log Reduction [12]: ≥5.57
- contact time after which pass was achieved (Poliovirus Enterovirus 1; [20]): 15 min
- Test Result (Log reduction) (Poliovirus Enterovirus 1; in 15 min., 20° C. ± 1° C.): >10^4 in 15 min.
- contact time after which pass was achieved [13, 20]: 60 min
- Test Result (Log reduction) ([13]; in 60 min., 20° C. ± 1° C.): >10^6 in 60 min.
- contact time after which pass was achieved [14, 20]: 60 min
- Test Result (Log reduction) ([14]; in 60 min., 20° C. ± 1° C.): >10^6 in 60 min.
- % Reduction (% Kill) [15]: >99.999%
- HOCl Solution Log10 [15]: ≤1
- HOCl Solution Survivors [15]: <10
- Log Reduction [15]: ≥5.68
- reduction of human norovirus (human norovirus): 3 log10
- % Reduction (% Kill) [16]: >99.999%
- HOCl Solution Log10 [16]: ≤1
- HOCl Solution Survivors [16]: <10
- Log Reduction [16]: ≥5.28
- contact time after which pass was achieved [17, 20]: 5 min
- Log Reduction ([17]; contact time 15 seconds): 3.15
- Vashe Log10 ([17]; contact time 15 seconds): 2.52
- Vashe Survivors ([17]; contact time 15 seconds): 330
- % Reduction (% Kill) ([17]; contact time 15 seconds, listed as HOCl solution): 99.93%
- % Reduction (% Kill) ([17]; contact time 15 seconds, listed as hypochlorous acid solution): > 99.9%
- % Reduction (% Kill) ([17]; contact time 5 minutes): >99.999%
- Log Reduction ([17]; contact time 5 minutes): ≥5.69
- Vashe Log10 ([17]; contact time 5 minutes): ≤1
- Vashe Survivors ([17]; contact time 5 minutes): <10
- contact time after which pass was achieved [18, 20]: 15 s
- Test Result (Log reduction) ([18]; in 5 min., 20° C. ± 1° C.): >10^5 in 5 min.
- % Reduction (% Kill) [19]: >99.995%
- HOCl Solution Log10 [19]: ≤1
- HOCl Solution Survivors [19]: <10
- Log Reduction [19]: ≥4.96
